This data set in a line: Human HepG2 cell viability assay in 384 well format. The data set is classed as toxicity, cell-based. As to conditions: HepG2 cells, read-out: Inhibition. More on the design: dose 125 nL, time 70.5 hour; concentration not given beside the values.

These results are taken from ChEMBL document CHEMBL3507680, “University of Dundee, Gates Library screen for HepG2 cell viability”.

As to `CC(C)CN(Cc1ccc(C(F)(F)F)nc1)Cc1cnn(C)c1`, the cytotoxicity at 70.5 h was -3.14%. Consider `O=C(c1ccc(S(=O)(=O)N2CCNCC2)cc1)N1CCCC(O)C1` (stereo not given), for which the cytotoxicity at 70.5 h was -16.1%. On to `COc1cc2c(cc1CN1CCC3(CCCN(C)C3=O)C1)OCCO2` (stereo not given), for which the cytotoxicity at 70.5 h was -15.9%.

Take `CC(Nc1nccc(CCC(F)(F)F)n1)c1nc(-c2ccccn2)no1` (stereo not given): the cytotoxicity at 70.5 h was -2.61%.

Consider `CCNC(=O)[C@@H]1C[C@H](NC(=O)c2cc(=O)[nH]c3ccc(C)cc23)CN1C`, for which the cytotoxicity at 70.5 h is -7.81%. Turning to `Cn1c(Cn2ncc(N3CCCC3)cc2=O)nc2ccccc21`, the cytotoxicity at 70.5 h turned out to be 25.6%.

Take `Cn1nc(C2CC2)c2c1NC(=O)CC2c1cc(CN2CCCC2)cs1` (stereo not given): the cytotoxicity at 70.5 h is -8.83%. With `c1ccc(SCCN2CCN(CCn3cncn3)CC2)cc1`, the cytotoxicity at 70.5 h is -22.3%. Next, `c1ccc(CN2C[C@H]3CC[C@@H]2CN(Cc2nnc(C4CC4)o2)C3)cc1`: -1.91%; `O=C(Cn1cccc1)NCC1CCN(Cc2cc3ccccc3[nH]2)C1` (stereo not given): -16.5%; `COCCCC1(CO)CCCN(Cc2ccc(F)c(OC)c2)C1` (stereo not given): 9.96%. For `CCCc1nc(C)c(CNc2nc(C)nc3oc(C)nc23)s1` the value was -8.14%. Turning to `CCc1cc(NC2CCOCC2)n2nc(C)c(C)c2n1`, the cytotoxicity at 70.5 h is -10.6%. For `COCCOC1CCN(C(C(=O)O)c2ccc(OC)c(F)c2)CC1` (stereo not given) the value was -6%. For the compound `O=C(c1ccoc1)N1CCCN(C(=O)c2ccc(C3CCCN3)s2)CC1` (stereo not given), the cytotoxicity at 70.5 h was -7.17%.

`CN(C)CC1(O)CCN(Cc2cnc3c(-c4ccccc4)cnn3c2)C1` (stereo not given): the cytotoxicity at 70.5 h is -4.22%. For `CC(N)C(=O)N1CCC(Oc2cccc(C(F)(F)F)c2)CC1` (stereo not given) the value was 11.5%; for `Cc1cnc(CNC(=O)C2CCOc3ccccc3C2)cn1` (stereo not given), -19.3%; for `CN1CCN(Cc2cnc(S(=O)(=O)CC3CC3)n2CC2CCCO2)CC1` (stereo not given), -4.87%. Consider `Cn1ccnc1CN1C[C@@H](CN2CCCCC2)[C@@H](CO)C1`, for which the cytotoxicity at 70.5 h is -6.64%. Take `COc1ccc(CN2CCC3(CCCNC3)C2)cc1Cn1cccn1` (stereo not given): the cytotoxicity at 70.5 h was 3.97%. As for `CCN(C)CC(C)Cn1cnc(-c2ccccc2)c1C` (stereo not given), the cytotoxicity at 70.5 h is -15.1%.

Turning to `CC[C@@]1(O)CCN(c2ncc(Cl)cc2F)C[C@H]1O`, the cytotoxicity at 70.5 h was -13.4%. Consider `CCCc1cc(CNC2CCN(c3nc(C)cc(C)n3)CC2)on1`, for which the cytotoxicity at 70.5 h is -5.05%.

Take `CCC[C@@H]1CN(C(=O)c2cc3ccccc3s2)C[C@H]1NS(C)(=O)=O`: the cytotoxicity at 70.5 h is -2.51%. With `CCN(C)C(=O)CN1CCC(c2cc(N3CCOCC3)nc(C)n2)CC1`, the cytotoxicity at 70.5 h was -6.04%. Turning to `Cc1ccc(C)c(OCc2cc(C(=O)N(C)CC(O)CO)no2)c1` (stereo not given), the cytotoxicity at 70.5 h was -4.59%.

On to `CCc1ncc(S(C)(=O)=O)c(C2CCCNC2)n1` (stereo not given), for which the cytotoxicity at 70.5 h is -5.94%.

`CN(CCc1ccccc1)c1cnn(CC2COCCO2)c(=O)c1` (stereo not given): the cytotoxicity at 70.5 h was -4.1%.

As to `Cc1ccc(-c2c(-c3ccccc3)ncn2CCCN2CCOCC2)o1`, the cytotoxicity at 70.5 h is -11.8%. Next, `OC1CCCN(CCNc2ncc(Cl)cc2F)C1` (stereo not given): 16.2%; `CO[C@H]1CNC[C@@H]1NC(=O)c1cc(C)nc2c(C)c(C)ccc12`: 5.29%; `Cc1nc(CN2CCN(C(=O)C(c3ccccc3C)N(C)C)CC2)no1` (stereo not given): -7.12%. On to `Cn1c(N2CCOCC2)nc2cc(C(=O)N3CCCOCC3)ccc21`, for which the cytotoxicity at 70.5 h is -12.1%. As for `Cc1ccccc1CN1CCN(C(=O)c2ccn(C(C)(C)C)c2)CC1`, the cytotoxicity at 70.5 h amounted to 16.3%. As to `Cc1nc(C(=O)N2CCCCC2c2ccc(CN(C)C)cc2)c(C)o1` (stereo not given), the cytotoxicity at 70.5 h is -4.13%. For `CCN(CCN(C)C)c1nc(CCN)nc2sc(C)c(C)c12` the value was 8.66%; for `O=C(NC[C@@H]1CCCO1)c1ccc(S(=O)(=O)N[C@@H]2CCNC2)cc1`, 6%. Consider `CCCc1n[nH]cc1C(=O)NCC1COc2cc(OC)ccc2C1` (stereo not given), for which the cytotoxicity at 70.5 h is 14.2%. Turning to `CCc1nc(C)sc1CN1CC[C@@](O)(CCOC)[C@H](C)C1`, the cytotoxicity at 70.5 h was -5.48%. For the compound `Cc1nccn1CCCN1CCCC(c2ccccc2)C1` (stereo not given), the cytotoxicity at 70.5 h is -1.68%. As to `O=C(c1cccs1)N1CC(Oc2ccccc2Cl)C1`, the cytotoxicity at 70.5 h is -0.814%. As to `CNc1ncccc1C(=O)N1CCCC2(CCN(C)CC2)CC1`, the cytotoxicity at 70.5 h is -1.7%. In the case of `COc1ccc(OC)c(C2CCN(CC(C)(C)N3CCOCC3)C2)c1` (stereo not given), the cytotoxicity at 70.5 h was -4.45%. Next, `CC(C)C1CN(C(=O)c2cn3ccccc3n2)CCCN1CC1CC1` (stereo not given): -10.1%; `c1ccc(OCCSC2=NCCN2)cc1`: -2.35%. Turning to `Cc1nc(-c2nnc(SCC(=O)O)n2C(C)c2ccccc2)co1` (stereo not given), the cytotoxicity at 70.5 h is -10%.

Take `Cc1nc(O)cc(C2CCCN(C(=O)COCc3ccccc3)C2)n1` (stereo not given): the cytotoxicity at 70.5 h is 1.06%. For the compound `CCOCCC(=O)N(C)CC1Cc2ccccc2CN1C` (stereo not given), the cytotoxicity at 70.5 h is -0.994%. For `CCCn1c(C)c(CC(=O)NC(C)(C)CO)c2c1CC(C)(C)CC2=O`, the cytotoxicity at 70.5 h amounted to 0.294%. On to `Cc1ccc(C(=O)N2CCCC(N)CC2)cc1N1CCNC1=O` (stereo not given), for which the cytotoxicity at 70.5 h was -2.27%. Turning to `O=C(O)[C@@H]1CN(C(=O)CCc2ccccn2)C[C@H]1c1ccccc1`, the cytotoxicity at 70.5 h is -4.59%. As to `c1cc(CCNc2ncnc3c2CCN(Cc2ccoc2)CC3)ccn1`, the cytotoxicity at 70.5 h is 0.564%. For `COCCCN1C(=O)CC[C@H]2CN(Cc3ccc4occc4c3)CC[C@H]21`, the cytotoxicity at 70.5 h was 26.4%.

In the case of `COC(C)(C)C(=O)NCC1CCN(Cc2cc3ccccc3[nH]2)C1` (stereo not given), the cytotoxicity at 70.5 h is -17.4%. As for `COCCNc1nc2c(c(NCc3cnc(C)c(C)c3)n1)CCNCC2`, the cytotoxicity at 70.5 h was -3.2%. For `Cc1cc(N2Cc3cnn(CCO)c3C2)nc(-c2ccccc2O)n1`, the cytotoxicity at 70.5 h is -4.43%.

Take `c1cn(CC2CCOCC2)c(-c2cc(CN3CCCC3)cs2)n1`: the cytotoxicity at 70.5 h was -3.55%. Consider `COCCC1(C(=O)O)CCN(c2cc(C)c3ccccc3n2)CC1`, for which the cytotoxicity at 70.5 h turned out to be 18.8%. Turning to `CN(C)C(C(=O)NCC1(Cn2cccn2)CC1)c1ccc(F)cc1` (stereo not given), the cytotoxicity at 70.5 h is 3.72%. For the compound `COc1ccc([C@@H]2CN(Cc3ccncc3)C[C@H]2N(C)C)cc1`, the cytotoxicity at 70.5 h is -9.42%. `O=C(O)[C@@H]1CN(C(=O)NCC2CCCCC2)C[C@H]1c1ccccn1`: the cytotoxicity at 70.5 h is -2.76%. In the case of `CCCOCC1CCN(C(=O)c2cnc(C)nc2O)C1` (stereo not given), the cytotoxicity at 70.5 h was -2.13%.

With `CSc1nccc(N2CCC(NCCN3CCOCC3)CC2)n1`, the cytotoxicity at 70.5 h was -6.94%. `COc1ccccc1C(C(=O)O)N1CCCN(C2CCCC2)CC1` (stereo not given): the cytotoxicity at 70.5 h worked out at 16.1%. Consider `O=C(NC1CC1)[C@H]1[C@@H]2CN(Cc3ccc(-c4ccn[nH]4)s3)C[C@@H]21`, for which the cytotoxicity at 70.5 h was 0.292%. As to `O=C1CC[C@@H](C(=O)N2CCc3[nH]nc(COc4cccc(Cl)c4)c3C2)N1`, the cytotoxicity at 70.5 h was -8.37%. Take `Oc1cccc(CN2CCN(C3CCc4ccccc4C3)CC2)c1` (stereo not given): the cytotoxicity at 70.5 h was determined as 19.8%.

Regarding `CCO[C@H]1C[C@@H](O)C12CCN(C(=O)CN1CCCCCC1=O)CC2`, the cytotoxicity at 70.5 h was determined as 6.65%. With `COC(=O)c1ccc(CN(C(C)C)C(C)C)o1`, the cytotoxicity at 70.5 h was -2.95%.
